Data published in article PMC7894522, “Structure Based Design of Bicyclic Peptide Inhibitors of RbAp48” (Angewandte Chemie (International Ed. in English), 2020).
Starred links: 1 amine or outer side, 2 acyl side, 3 side chain; linkers in the order of their positions; H or OH if unused. Positions of bridges follow the written chain, without caps; N, C: chain ends. Residues, ends and D or L forms follow the SMILES beside them. TBMB = c1c(C[*:1])cc(C[*:3])cc1C[*:2]; pXylylene = c1cc(C[*:2])ccc1C[*:1]

Legend:
U2OS cells = assay: Morphological cell painting assay; assay type: cell-based; conditions: Supplemental table 6; cell painting profile similarity to compound 49, U2OS cells
Source text: Encouraged by the promising results from the pulldown experiment, and in order to get insight into bioactivity and possible mode of action, we analyzed peptide 33 in a morphological cell painting assay. The cell painting assay is a target agnostic assay which determines a cells morphological profile after treatment with a compound of interest and compares it to the profiles of a set of reference compounds. ^[22] By identifying reference compounds with a similar profile a hypothesis of the compounds mode of action can be generated based on their annotated targets. ^[23] U2OS cells were treated with our compound and 579 parameters were analyzed. […] We therefore synthesized a variant modified with an N‐terminal TAT sequence to enhance its permeability (compound 49, see Table 1 and Supplemental Figure 4). ^[24] […] Applying compound 49 to the cell painting assay led to an induction of 5.9 % and the corresponding profile was compared to the set of 3000 reference compounds. […] To validate this hypothesis, we exposed U2OS cells to compound 49 and evaluated the levels of p53 by Western blot. […] The exact mechanism by which the compounds elevate levels of p53 requires further investigation. However, it has previously been shown that the NuRD complex, of which RbAp48 is a core component, is able to deacetylate p53 and thereby modulate its stability. ^[26] The effect is mediated by the MTA family of proteins from which the compounds described here are derived. […]
The described assay follows closely the method described by Bray et al. Initially, 5 µl U2OS medium were added to each well of a 384 -well plate (PerkinElmer CellCarrier -384 Ultra). Subsequently, U2OS cell were seeded with a density of 1600 cells per well in 20 µl medium. The plate was incubated for 10 min at the ambient temperatu re, followed by an a dditional 4 h incubation (37 °C, 5 % CO2). Compound treatment was performed with the Echo 520 acoustic dispenser (Labcyte) at final concentrations of 10 µM, 3 µM or 1 µM. Incubation with compound was performed for 20 h (37 °C, 5 % CO2). Subsequently, mitoc hondria were stained with Mito Tracker Deep Red (Thermo Fisher Scientific, Cat. No. M22426). The Mito Tracker Deep Red stock solution (1 mM) was diluted to a final concentration of 100 nM in prewarmed medium. The medium was removed fr om the plate leaving 1 0 µl residual volume and 25 µl of the Mito Tracker solution were added to each well. 22 The plate was incubated for 30 min in darkness (37 °C, 5 % CO2). To fix the cells 7 µl of 18.5 % formaldehyde in PBS were added, resulting in a fi nal formaldehyde conce ntration of 3.7 %. Subsequently, the plate was incubated for another 20 min in darkness (RT) and washed three times with 70 µl of PBS. (Biotek Washer Elx405). Cells were permeabilized by addition of 25 µl 0.1 % Triton X -100 to each well, followed by 15 min incubation (RT) in darkness. The cells were washed three times with PBS leaving a final volume of 10 µl. To each well 25 µl of a staining solution were added, which contains 1 % BSA, 5 µl/mL Phalloidin (Thermo Fisher Scientific, A123 81), 25 µg/ml Concanav alin A (Thermo Fisher Scientific, Cat. […]
conjugate (Thermo Fisher Scientific, Cat. No. W11262) and […] SYTO 14 solution (Thermo Fisher Scientific, Cat. No. S7576). The plate is incubated for 30 min (RT) in darkness and washed three times with 70 µl PBS. After the final washing step the PBS was not aspirated. The plates were sealed and centrifuged for 1 min at 500 rpm.
The plates were prepare d in triplicates with shifted layouts to reduce plate effects and imaged using a Micro XL High-Content Screening System (Molecular Devices) in 5 channels (DAPI: Ex350 -400/ Em410- […]
The generated images were processed with the CellProfiler package (https://cellprofiler.org/, version 3.0.0) on a computing cluster of the Max Planck Society to extract 1716 cell features (parameters) per microscope site. The data was then further aggregated as medians per well (9 sites -> 1 well), then […]

[1] = Peptide stability in MDA-MB-231 whole cell lysate; assay type: in vitro ADME; conditions: human, 37°C, HPLC, duplicate; for half-life at 600 µM: MDA-MB-231 whole cell lysate (freeze-thaw), 5 mg/ml protein in PBS, peptide 600 µM, read-out: t 1/2 (half-life); for remaining at 5 min, 600 µM: T 5 min; for remaining at 5 min, 600 µM / remaining at 0.25 h, 600 µM / remaining at 1 h, 600 µM: MDA-MB-231 whole cell lysate 5 mg/ml protein, read-out: % left; for remaining at 0.25 h, 600 µM: T 15 min; for remaining at 1 h, 600 µM: T 60 min
Experimental: To investigate whether the cyclization strategy influences the stability of the peptides we incubated 3, 8 and 33 in MDA‐MB‐231 cell lysate. […]
(§1) Fluorescence polarization assay […]
Isothermal Titration Calorimetry […]
Peptide stability was tested in whole cell lysate prepared from MDA-MB-231 cells using the freeze-thaw method. Peptides were dissolved in lysate (normalized to 5mg/ml protein using PBS) at 600 µM and incubated at 37°C. Samples were taken at different time points and mixed with an equal amount of MeOH containing 0.05 mg/ml ethylparaben as an i nternal standard. The samples were mixed and kept on ice for 15 minutes before centrifugation at 14000 rpm at 4 °C for 10 min. The supernatant was carefully removed and analyzed by HPLC. Peptide peaks were integrated and surface areas compared […]
Measurements were performed in duplicate.

RbAp48 [2] = biological target: T1, RbAp48 (Homo sapiens, UniProt Q09028); assay: Competitive fluorescence polarization (FP) assay using complex of peptide 1 and RbAp48; assay type: binding; parameters: Full length RbAp48 was cloned; His tag followed by 3C cleavage site (N, cleaved yes); made in house; host or cells: Sf9 insect cells; conditions: for IC50: Table 1, competitive FP, tracer peptide 1 1 nM, RbAp48 15 nM, 20 mM Tris-HCl, 150 mM NaCl, 0.01% Tween-20, pH 7.5, 30 min room temperature, lower limit set by 15 nM protein, read-out: IC50
T1 sequence (Q09028 whole entry): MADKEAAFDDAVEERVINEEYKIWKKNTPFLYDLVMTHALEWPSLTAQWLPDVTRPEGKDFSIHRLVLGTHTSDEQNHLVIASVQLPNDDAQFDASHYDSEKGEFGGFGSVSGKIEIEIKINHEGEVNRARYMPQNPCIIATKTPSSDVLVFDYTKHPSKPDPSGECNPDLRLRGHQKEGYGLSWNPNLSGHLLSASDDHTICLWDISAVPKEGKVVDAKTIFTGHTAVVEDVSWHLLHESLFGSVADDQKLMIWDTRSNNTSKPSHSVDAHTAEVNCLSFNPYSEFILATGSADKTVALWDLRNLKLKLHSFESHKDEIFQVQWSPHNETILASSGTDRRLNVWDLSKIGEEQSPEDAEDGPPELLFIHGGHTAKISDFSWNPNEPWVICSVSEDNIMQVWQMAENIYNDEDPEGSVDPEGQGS
Procedure, shortened: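 Sf9-expressed full-length RbAp48 (tag cleaved), 15 nM, displaced from 1 nM fluorescent peptide tracer in 20 mM Tris-HCl pH 7.5, 150 mM NaCl, 0.01% Tween-20. Read by FP (ex 485/em 535 nm) after 30 min at room temperature.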

RbAp48 [3] = biological target: T1, RbAp48; assay: Isothermal titration calorimetry (direct and competitive); assay type: binding; parameters: Full length RbAp48 was cloned; His tag followed by 3C cleavage site (N, cleaved yes); made in house; host or cells: Sf9 insect cells
Experimental: The weak ligand interferes with binding of the strong ligand allowing the use of higher concentrations and therefore stronger signal. The actual affinity and thermodynamic parameters can then be calculated from the measured values.[ ^20 , ^21 ] The long linear peptide 2, monocyclic peptide 8, and bicyclic peptide 33 were analysed using this method and the results are reported in Table 2 (See Figure 4 A and Supplemental Figure 13–16). […] An effect which could not clearly be observed by the FP assay as it's lower limits were reached.
Protein expression and purification
RbAp48 was expressed and purified by the Dortmund Protein Facility. Full length RbAp48 was cloned into a pOPIN vector ligating it to an N-terminal His tag followed by a 3C cleavage site. The protein was expressed from Sf9 cells for 48 h. Cells were harvested and lysed and the protein was purified by loading onto a HisTrap FF crude 5 ml column followed by on-column cleavage using Precission protease. The cleaved protein was then further purified using a HiLoad 26/60 Superdex 200 column.
as §1
Isothermal Titration Calorimetry
Isothermal titration calorimetry measurements w ere performed using a Microcal ITC-200 device. The buffer for all measurements consisted of 20 mM Tris, 150 mM NaCl, pH 7.5 and all measurements were performed at 25°C in duplicate except for 8. RbAp48 was dialyzed overnight using a 10 kDa MWCO Slide-A-lizer dialysis membrane and peptide samples were dissolved in the dialysis buffer. Direct measurements of 40 were perfomed by titrating the peptide ( 800 µM) into the cell containing RbAp48 (40 µM) using 2 µl injection after an initial injection of 0.5 µl. […]
by competitive ITC where the protein is premixed with a weak ligand ( 40).[1] Competitive measurements were performed by titrating 2, 8 or 33 (300 µM) into the cell containing RbAp48 (30 µM) and 40 (416 µM). Other conditions were the same as for the direct measurement described above.
Ki was calculated according using the following formula: […]

[4] = competitive ITC with weak ligand 40

Compound: NS(=O)(=O)OC[C@@H]1C[C@@H](n2ccc3c(N[C@H]4CCc5ccccc54)ncnc32)C[C@@H]1O [Pevonedistat]
- Biosimilarity (%) (U2OS cells): 63.6%

Compound: CCN(CC)CCNC(=O)c1c(C)[nH]c(/C=C2\C(=O)Nc3ccc(F)cc32)c1C [Sunitinib]
- Biosimilarity (%) (U2OS cells): 63.5%

Compound: CC(C)(C)C[C@@H]1N[C@@H](C(=O)N[C@H]2CC[C@H](O)CC2)[C@H](c2cccc(Cl)c2F)[C@]12C(=O)Nc1cc(Cl)ccc12 [MI-773]
- Biosimilarity (%) (U2OS cells): 73.0%

Compound: CC(=O)N[C@H]1CSCc2ccc(cc2)CSC[C@@H](C(=O)N[C@@H](C)C(N)=O)NC(=O)[C@@H]2CCCN2C(=O)[C@H](CCCCN)NC(=O)[C@H](Cc2ccc(O)cc2)NC(=O)[C@@H]2CCCN2C(=O)[C@H](CCCNC(=N)N)NC(=O)[C@H](CCCNC(=N)N)NC(=O)[C@H](C)NC(=O)[C@H](C)NC(=O)[C@H](CCCNC(=N)N)NC(=O)[C@H](CCCCN)NC(=O)[C@H]([C@@H](C)O)NC1=O [Peptide 8] (Ac-CTKRAARRPYKPCA-NH2; linker 1-13 via pXylylene)
- half-life at 600 µM [1]: 11.9 min
- remaining at 5 min, 600 µM [1]: 67.8%
- remaining at 0.25 h, 600 µM [1]: 41%
- remaining at 1 h, 600 µM [1]: 0%
- IC50 (RbAp48 [2]): 15.1 ± 5.4 nM
- K D (RbAp48 [3]; [4]): did not yield a binding curve
- K D [nM] (RbAp48 [3]; competitive ITC: 300 μM peptide titrated into 30 μM RbAp48 and 416 μM peptide 40, 20 mM Tris, 150 mM NaCl, pH 7.5, 25°C, duplicate except 8): N.B.

Compound: CC[C@H](C)[C@H](NC(=O)[C@@H]1CCCN1C(=O)[C@H](CCCCN)NC(=O)[C@H](Cc1ccc(O)cc1)NC(=O)[C@@H]1CCCN1C(=O)[C@H](CCCNC(=N)N)NC(=O)[C@H](CCCNC(=N)N)NC(=O)[C@H](C)NC(=O)[C@H](C)NC(=O)[C@H](CCCNC(=N)N)NC(=O)[C@H](CCCCN)NC(=O)[C@@H](NC(=O)[C@H](CCC(=O)O)NC(C)=O)[C@@H](C)O)C(=O)N[C@@H](C)C(N)=O [Peptide 3] (Ac-ETKRAARRPYKPIA-NH2)
- half-life at 600 µM [1]: 16 min
- remaining at 5 min, 600 µM [1]: 67.5%
- remaining at 0.25 h, 600 µM [1]: 49.2%
- remaining at 1 h, 600 µM [1]: 0%
- IC50 (RbAp48 [2]): 2620 ± 786 nM

Compound: COc1cc2nc(N3CCCN(C)CC3)nc(NC3CCN(Cc4ccccc4)CC3)c2cc1OC [BIX01294]
- Biosimilarity (%) (U2OS cells): 64.9%

Compound: PFI-5
- Biosimilarity (%) (U2OS cells): 65.1%

Compound: CC[C@H](C)[C@H](NC(=O)[C@@H]1CCCN1C(=O)[C@H](CCCCN)NC(=O)[C@H](Cc1ccc(O)cc1)NC(=O)[C@@H]1CCCN1C(=O)[C@H](CCCNC(=N)N)NC(=O)[C@H](CCCNC(=N)N)NC(=O)[C@H](C)NC(=O)[C@H](C)NC(=O)[C@H](CCCNC(=N)N)NC(=O)[C@H](CCCCN)NC(=O)[C@@H](NC(=O)[C@H](CCC(=O)O)NC(=O)[C@H](CO)NC(=O)[C@H](CO)NC(=O)[C@H](CO)NC(=O)[C@H](CC(C)C)NC(=O)[C@H](CC(C)C)NC(=O)[C@H](CCCCN)NC(C)=O)[C@@H](C)O)C(=O)N[C@@H](C)C(=O)N[C@@H](CC(C)C)C(=O)N[C@@H](CCCNC(=N)N)C(=O)N[C@@H](CCC(N)=O)C(=O)N[C@@H](CO)C(=O)N[C@@H](CCC(N)=O)C(=O)N[C@@H](C)C(N)=O [Peptide 2] (Ac-KLLSSSETKRAARRPYKPIALRQSQA-NH2)
- IC50 (RbAp48 [2]): 13.4 ± 3 nM
- Kd (RbAp48 [3]; [4]): 5.18 nM

Compound: CC(=O)N1CCN(c2ccc(OCC3COC(Cn4ccnc4)(c4ccc(Cl)cc4Cl)O3)cc2)CC1 (centres unmarked) [Ketoconazole]
- Biosimilarity (%) (U2OS cells): 61.9%

Compound: CC(=O)N[C@H]1CSCc2cc3cc(c2)CSC[C@@H](C(=O)N[C@@H](C)C(N)=O)NC(=O)[C@@H]2CCCN2C(=O)[C@H](CCCCN)NC(=O)[C@H](Cc2ccc(O)cc2)NC(=O)[C@@H]2CCCN2C(=O)[C@H](CCCNC(=N)N)NC(=O)[C@H](C)NC(=O)[C@H](C)NC(=O)[C@H](CSC3)NC(=O)[C@H](CCCNC(=N)N)NC(=O)[C@H](CCCCN)NC(=O)[C@H]([C@@H](C)O)NC1=O [Peptide 40] (Ac-CTKRCAARPYKPCA-NH2; linker 1-5-13 via TBMB)
- IC50 (RbAp48 [2]): 4320 ± 974 nM
- FP activity in words (RbAp48 [2]; competitive FP assay): decreased several orders of magnitude
- Kd (RbAp48 [3]; weak binding ligand, direct ITC): 15800 nM
